# Experimental data: US20240270821A1, “GIP/GLP1/GCG TRI-RECEPTOR AGONISTS AND USES THEREOF” (priority 2023, published 2024)
# Read-outs that look alike come from different tables or passages of the source. Starred links: 1 amine or outer side, 2 acyl side, 3 side chain; linkers in the order of their positions; H or OH if unused. Non-standard residues stand in square brackets, D forms with d. Groups on a side chain read outwards from the residue. *: point of attachment. C18 diacid = O=C(O)CCCCCCCCCCCCCCCCC(=O)*; γGlu = O=C(O)[C@H](CCC(=O)[*:2])N[*:1]; αMe4Pal = C[C@](N)(Cc1ccncc1)C(=O)O; 4Pal = N[C@@H](Cc1ccncc1)C(=O)O; αMeL = CC(C)C[C@](C)(N)C(=O)O; Orn = NCCC[C@H](N)C(=O)O; Dab = NCC[C@H](N)C(=O)O; Aib = CC(C)(N)C(=O)O
# Experiments:
# Assay type in all cases: cell-based
# hGLP-1R [1] = target: T1, hGLP-1R (Homo sapiens, UniProt P43220); assay: Functional cAMP activity in the presence of 1% HSA; conditions: read-out: cAMP Rel EC50, hGLP-1R
# T1 sequence (P43220 24-463): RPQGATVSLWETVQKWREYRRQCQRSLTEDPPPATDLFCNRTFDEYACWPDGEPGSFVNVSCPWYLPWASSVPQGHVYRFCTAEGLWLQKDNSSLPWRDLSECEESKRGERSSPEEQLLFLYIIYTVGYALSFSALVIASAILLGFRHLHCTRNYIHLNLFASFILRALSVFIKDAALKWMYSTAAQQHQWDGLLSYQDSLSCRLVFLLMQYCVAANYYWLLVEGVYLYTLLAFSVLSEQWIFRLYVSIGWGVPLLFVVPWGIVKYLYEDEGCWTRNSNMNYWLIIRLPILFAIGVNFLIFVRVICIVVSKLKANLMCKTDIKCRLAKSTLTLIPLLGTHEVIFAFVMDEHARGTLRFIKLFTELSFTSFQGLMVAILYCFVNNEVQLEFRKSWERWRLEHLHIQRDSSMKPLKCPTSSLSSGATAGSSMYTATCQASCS
# hGLP-1R [2] = target: T1, hGLP-1R; assay: Functional cAMP activation in the presence of 0.1% casein (no HSA); conditions: read-out: Relative cAMP EC50, hGLP-1R;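 as to Relative cAMP EC50, hGIPR: intracellular cAMP rise after 30 min at 37 °C read by HTRF against a standard curve, scaled between buffer alone (0%) and top control ligand concentration (100%), four-parameter fit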;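 as to Relative cAMP EC50, hGLP-1R: intracellular cAMP rise after 30 min at 37 °C read by HTRF, normalized between buffer only (0%) and maximal control ligand (100%), four-parameter variable-slope fit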
# human GcgR = human GcgR (Homo sapiens, UniProt P47871); assay: Functional cAMP activity in the presence of 1% HSA; conditions: read-out: cAMP Rel EC50, hGcgR
# Chain of human GcgR (P47871 26-477): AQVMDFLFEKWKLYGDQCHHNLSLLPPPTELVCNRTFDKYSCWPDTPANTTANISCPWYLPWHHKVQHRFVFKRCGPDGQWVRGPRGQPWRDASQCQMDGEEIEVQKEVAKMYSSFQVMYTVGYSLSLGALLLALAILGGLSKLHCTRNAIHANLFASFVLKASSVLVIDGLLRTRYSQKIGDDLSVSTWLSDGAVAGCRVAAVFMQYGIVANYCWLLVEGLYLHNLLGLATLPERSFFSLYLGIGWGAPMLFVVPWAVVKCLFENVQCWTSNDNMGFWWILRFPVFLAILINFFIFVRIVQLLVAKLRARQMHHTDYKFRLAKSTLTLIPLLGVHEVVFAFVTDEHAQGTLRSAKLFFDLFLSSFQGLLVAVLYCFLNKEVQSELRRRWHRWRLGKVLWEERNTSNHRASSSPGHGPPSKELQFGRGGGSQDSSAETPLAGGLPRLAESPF
# hGcgR = hGcgR (Homo sapiens, UniProt P47871); assay: Functional cAMP activation in the presence of 0.1% casein (no HSA); conditions: read-out: Relative cAMP EC50, hGcgR;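 also: intracellular cAMP rise after 30 min at 37 °C, read by HTRF against a cAMP standard curve, scaled from buffer only (0%) to maximal control ligand response (100%)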
# Chain of hGcgR (P47871 26-477): as above
# hGIPR [3] = target: T2, hGIPR (Homo sapiens, UniProt P48546); assay: as above; conditions: read-out: Relative cAMP EC50, hGIPR;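 also: intracellular cAMP rise after 30 min at 37 °C read by HTRF against a standard curve, scaled between buffer alone (0%) and top control ligand concentration (100%), four-parameter fit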
# T2 sequence (P48546 22-466): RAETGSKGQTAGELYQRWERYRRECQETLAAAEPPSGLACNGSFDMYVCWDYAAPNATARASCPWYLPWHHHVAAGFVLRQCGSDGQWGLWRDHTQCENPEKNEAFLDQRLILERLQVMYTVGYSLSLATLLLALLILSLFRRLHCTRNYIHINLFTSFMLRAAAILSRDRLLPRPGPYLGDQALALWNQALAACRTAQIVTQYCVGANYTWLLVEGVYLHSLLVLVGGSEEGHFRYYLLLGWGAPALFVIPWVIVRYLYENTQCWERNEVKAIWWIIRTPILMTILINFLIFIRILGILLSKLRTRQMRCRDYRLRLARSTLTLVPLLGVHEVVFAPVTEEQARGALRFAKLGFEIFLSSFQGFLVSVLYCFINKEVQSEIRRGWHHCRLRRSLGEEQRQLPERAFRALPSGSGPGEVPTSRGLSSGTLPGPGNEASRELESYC
# hGIPR [4] = target: T2, hGIPR; assay: Functional cAMP activity in the presence of 1% HSA; conditions: read-out: cAMP Rel EC50, hGIPR
# [5] = in the presence of 0.1% casein (no HSA), geometric mean
# [6] = HEK-293 clonal cell line, in the presence of 1% HSA, geometric mean of relative EC50
Compound,EC50 (hGLP-1R [1]) [nM],EC50 (hGLP-1R [2]) [nM],EC50 (human GcgR) [nM],EC50 (hGcgR) [nM],EC50 (hGIPR [3]) [nM],EC50 (hGLP-1R [2]; [5]) [nM],EC50 (hGcgR; [5]) [nM],EC50 (hGIPR [3]; [5]) [nM],EC50 (hGIPR [4]) [nM],EC50 (human GcgR; [6]) [nM],EC50 (hGIPR [4]; [6]) [nM]
CC[C@H](C)[C@H](NC(=O)[C@H](Cc1ccccc1)NC(=O)[C@H](C)NC(=O)C(C)(C)NC(=O)[C@H](CCC(N)=O)NC(=O)[C@H](C)NC(=O)[C@H](CCCCNC(=O)CC[C@H](NC(=O)CC[C@H](NC(=O)CCCCCCCCCCCCCCCCC(=O)O)C(=O)O)C(=O)O)NC(=O)[C@H](CCCCN)NC(=O)[C@H](CC(=O)O)NC(=O)[C@H](CC(C)C)NC(=O)[C@H](CC(C)C)NC(=O)[C@@H](NC(=O)[C@H](CO)NC(=O)[C@H](Cc1ccc(O)cc1)NC(=O)[C@H](CC(=O)O)NC(=O)[C@H](CO)NC(=O)[C@@H](NC(=O)[C@](C)(Cc1ccccc1F)NC(=O)[C@@H](NC(=O)CNC(=O)[C@H](CCC(N)=O)NC(=O)C(C)(C)NC(=O)[C@@H](N)Cc1ccc(O)cc1)[C@@H](C)O)[C@@H](C)O)[C@@H](C)CC)C(=O)N[C@@H](CCC(=O)O)C(=O)N[C@@H](Cc1ccc(O)cc1)C(=O)N[C@@H](CC(C)C)C(=O)N[C@@H](CCC(=O)O)C(=O)N[C@@H](CCC(=O)O)C(=O)NCC(=O)NCC(=O)N1CCC[C@H]1C(=O)N[C@@H](CO)C(=O)N[C@@H](CO)C(=O)NCC(=O)N[C@@H](CCC(=O)O)C(=O)N1CCC[C@H]1C(=O)N1CCC[C@H]1C(=O)N1CCC[C@H]1C(=O)N[C@@H](CO)C(N)=O [Example 432],41.7,0.431,384,1.6,0.0297,,,,,,
CC[C@H](C)[C@H](NC(=O)[C@H](Cc1ccccc1)NC(=O)[C@H](C)NC(=O)C(C)(C)NC(=O)[C@H](CCC(N)=O)NC(=O)[C@H](C)NC(=O)[C@H](CCCCNC(=O)COCCOCCNC(=O)CC[C@H](NC(=O)CCCCCCCCCCCCCCCCC(=O)O)C(=O)O)NC(=O)[C@H](CCCCN)NC(=O)[C@H](CC(=O)O)NC(=O)[C@H](CC(C)C)NC(=O)[C@](C)(CC(C)C)NC(=O)[C@H](CCCN)NC(=O)[C@H](CO)NC(=O)[C@H](Cc1ccccc1)NC(=O)[C@H](CC(=O)O)NC(=O)[C@H](CO)NC(=O)[C@@H](NC(=O)[C@H](Cc1ccccc1)NC(=O)[C@@H](NC(=O)CNC(=O)[C@H](CCC(N)=O)NC(=O)C(C)(C)NC(=O)[C@@H](N)Cc1ccc(O)cc1)[C@@H](C)O)[C@@H](C)O)C(=O)N[C@@H](CCC(=O)O)C(=O)N[C@@H](Cc1c[nH]c2ccccc12)C(=O)N[C@@H](CC(C)C)C(=O)N[C@@H](CC(C)C)C(=O)N[C@@H](CCC(=O)O)C(=O)NCC(=O)NCC(=O)N1CCC[C@H]1C(=O)N[C@@H](CO)C(=O)N[C@@H](CO)C(=O)NCC(=O)N[C@@H](C)C(=O)N1CCC[C@H]1C(=O)N1CCC[C@H]1C(=O)N1CCC[C@H]1C(=O)N[C@@H](Cc1ccncc1)C(=O)NCC(=O)N[C@@H](CO)C(N)=O [Example 251],301,,1500,,,2.64,6.98,0.153,,,
CC[C@H](C)[C@H](NC(=O)[C@H](Cc1ccccc1)NC(=O)[C@H](CCCN)NC(=O)C(C)(C)NC(=O)[C@H](CCC(N)=O)NC(=O)[C@H](C)NC(=O)[C@H](CCCCNC(=O)COCCOCCNC(=O)CC[C@H](NC(=O)CCCCCCCCCCCCCCCCCCC(=O)O)C(=O)O)NC(=O)[C@H](CCCN)NC(=O)[C@H](CC(=O)O)NC(=O)[C@H](CC(C)C)NC(=O)[C@](C)(CC(C)C)NC(=O)[C@@H](NC(=O)[C@H](CO)NC(=O)[C@H](Cc1ccncc1)NC(=O)[C@H](CC(=O)O)NC(=O)[C@H](CO)NC(=O)[C@@H](NC(=O)[C@](C)(Cc1ccccc1F)NC(=O)[C@@H](NC(=O)CNC(=O)[C@H](CCC(N)=O)NC(=O)C(C)(C)NC(=O)[C@@H](N)Cc1ccc(O)cc1)[C@@H](C)O)[C@@H](C)O)[C@@H](C)CC)C(=O)N[C@H](CCC(=O)O)C(=O)N[C@@](C)(Cc1ccc(O)cc1)C(=O)N[C@@H](CC(C)C)C(=O)N[C@@H](CC(C)C)C(=O)N[C@@H](CCC(=O)O)C(=O)NCC(=O)NCC(=O)N1CCC[C@H]1C(=O)N[C@@H](CO)C(=O)N[C@@H](CO)C(=O)NCC(=O)N[C@@H](CCC(=O)O)C(=O)N1CCC[C@H]1C(=O)N1CCC[C@H]1C(=O)N1CCC[C@H]1C(=O)N[C@@H](CO)C(N)=O [Example 365],75.2,,1490,,,0.265,4.24,0.0336,,,
H-Y[Aib]QGTFTSD[4Pal]SQ[αMeL]LD[Orn]K([γGlu-γGlu-C18 diacid])AQ[αMe4Pal]AFIEYLLAGGPSSGAPPPSGSEE-NH2 [Example 1056],,,1650,,,4.25,3.98,0.0929,29.6,,
CC[C@H](C)[C@H](NC(=O)[C@H](Cc1ccccc1)NC(=O)[C@H](C)NC(=O)[C@](C)(Cc1ccncc1)NC(=O)[C@H](CCC(N)=O)NC(=O)[C@H](C)NC(=O)[C@H](CCCCNC(=O)CC[C@H](NC(=O)CC[C@H](NC(=O)CCCCCCCCCCCCCCCCC(=O)O)C(=O)O)C(=O)O)NC(=O)[C@H](CCCN)NC(=O)[C@H](CC(=O)O)NC(=O)[C@H](CC(C)C)NC(=O)[C@](C)(CC(C)C)NC(=O)[C@H](CCC(N)=O)NC(=O)[C@H](CO)NC(=O)[C@H](Cc1ccncc1)NC(=O)[C@H](CC(=O)O)NC(=O)[C@H](CO)NC(=O)[C@@H](NC(=O)[C@H](Cc1ccccc1)NC(=O)[C@@H](NC(=O)CNC(=O)[C@H](CCC(N)=O)NC(=O)C(C)(C)NC(=O)[C@@H](N)Cc1ccc(O)cc1)[C@@H](C)O)[C@@H](C)O)C(=O)N[C@@H](CCC(=O)O)C(=O)N[C@@H](Cc1ccc(O)cc1)C(=O)N[C@@H](CC(C)C)C(=O)N[C@H](C(=O)N[C@@H](CCC(=O)O)C(=O)N[C@H](C)C(=O)NCC(=O)N1CCC[C@H]1C(=O)N[C@@H](CO)C(=O)N[C@@H](CO)C(=O)NCC(=O)N[C@@H](C)C(=O)N1CCC[C@H]1C(=O)N1CCC[C@H]1C(=O)N1CCC[C@H]1C(=O)N[C@@H](CCC(=O)O)C(=O)NCC(=O)N[C@@H](CO)C(N)=O)[C@@H](C)CC [Example 1021],174,,588,,,1.3,4.39,0.22,,,
H-Y[Aib]QGTFTSD[4Pal]S[Dab][αMeL]LD[Orn]K([γGlu-γGlu-C18 diacid])AQ[αMe4Pal]AFIE[αMe4Pal]LLAGGPSSGAPPPEGSEE-NH2 [Example 1055],,,,,,14.6,1.88,0.366,,450,78.9
H-Y[Aib]QGTFTSD[4Pal]S[Orn][αMeL]LDKK([Glu-γGlu-C18 diacid])AQ[αMe4Pal]AFIEYLIAGGPSSGAPPPSGSEE-NH2 [Example 1060],,,4900,,,2.85,9.08,0.223,44.7,,
